We go through four compounds from patent publication US20110152249A1, “EVALUATING CENTRAL NERVOUS SYSTEM” (THE GENERAL HOSPITAL CORPORATION, priority 2004, published 2011).

Read-outs that look alike come from different tables or passages of the source.

The subject of one assay is healthy human volunteers. The source says: We also investigated the effects of the general anesthetic agent propofol on cerebral structures involved in the processing of vibrotactile information. Using positron emission tomography (PET) and the H(2)(15)O bolus technique, we measured regional distribution of cerebral blood flow (CBF) in eight healthy human volunteers. They were scanned under five different levels of propofol anesthesia. Using a computer-controlled infusion, the following plasma levels of propofol were targeted: Level W (Waking, 0 microg/ml), Level 1 (0.5 microg/ml), Level 2 (1.5 microg/ml), Level 3 (3.5 microg/ml), and Level R (Recovery). At each level of anesthesia, two 3-min scans were acquired with vibrotactile stimulation of the right forearm either on or off. The level of consciousness was evaluated before each scan by the response of the subject to a verbal command.

In the next assay the test system is patient. Briefly: Medication history of a patient with facial burning and numbness following trigeminal rhizotomy. In kind it is in vivo, human. The note with it: single patient; facial burning and numbness after rhizotomy for trigeminal neuralgia. As to the method: In a similar manner as that described above for a healthy volunteer, we examined fMRI activation in a patient who had facial burning and numbness following trigeminal rhizotomy one year previously for trigeminal neuralgia. Medications, including gabapentin and tegretol, had been unhelpful. Careful questioning and psychophysical evaluation was performed. […] They also had decreased warm and cold sensation on the affected side vs. the intact side. They underwent functional neuroimaging for thermal stimuli applied to the V2 and V3 distributions on the right and left. FIGS. 3A-3E show the results of cortical activation from this patient. There was a decrease in activation to a 45° C. stimulus applied to the affected area and an apparent increase in signal for the same stimulus applied to the ipsilateral V3 distribution.

The subject of another assay is opioid naïve individuals. As to the kind of experiment: fMRI response to morphine in opioid naïve individuals. In kind it is in vivo, human. The source says: Some of these have an oppositely valenced signal to that observed for aversive painful stimuli. […] This observation is in counter distinction to that observed for cortical activation by painful stimuli (see above).

`CC(C)c1cccc(C(C)C)c1O` [propofol]: the level of consciousness entry in the assay with healthy human volunteers (Level 1, target plasma 0.5 microg/ml) was “slightly drowsy”; in the assay on healthy human volunteers (Level 2, target plasma 1.5 microg/ml) it was “slurred speech and slow response”; in the assay with healthy human volunteers (Level 3, target plasma 3.5 microg/ml), “not responding at all”. In addition, in the assay on healthy human volunteers (Level 1 through 3 (0.5-3.5 microg/ml target plasma), vibrotactile stimulation of right forearm), the “vibration-induced increases in rCBF in the primary and secondary somatosensory cortex” value was “suppressed vibration-induced increases in rCBF”. For the same compound, in the assay on healthy human volunteers (Level 3 = 3.5 microg/ml target plasma, volunteers lost consciousness), the “thalamic rCBF response to vibrotactile stimulation” value is recorded as “abolished only at Level 3”. Besides, the “rCBF in the thalamus and in visual, parietal, and prefrontal cortical regions” value with healthy human volunteers (during anesthesia, target plasma levels 0.5, 1.5, 3.5 microg/ml) is “reduced in a dose-dependent manner rCBF”.
Turning to `NC(=O)N1c2ccccc2C=Cc2ccccc21` [tegretol], the “clinical benefit of medication” value in the assay on patient is reported as “unhelpful”.
On to `CN1CC[C@]23c4c5ccc(O)c4O[C@H]2[C@@H](O)C=C[C@H]3[C@H]1C5` [morphine], for which, in the assay on opioid naïve individuals, the “fMRI activation in subcortical structures” value is on record as “activation in deep subcortical structures including those involved in reward”. The “fMRI signal in the SI cortex” value with opioid naïve individuals (low-dose morphine) was “decrease in signal in SI”.
For the compound `NCC1(CC(=O)O)CCCCC1` [gabapentin], in the assay with patient, the “clinical benefit of medication” value was “unhelpful”.
